{
  "source": "paper PMC10477886",
  "about": "“Adamantaniline Derivatives Target ATP5B to Inhibit Translation of Hypoxia Inducible Factor‐1α” (Advanced Science, 2023)",
  "key": {"[1]": {"molecular_target": "T1, ATP synthase (Bos taurus, UniProt P00829)", "T1 construct": "purchased Abcam ab109907", "assay": "MitoTox Complex V OXPHOS activity assay", "type": "biochemical", "settings": "up to 50 µM", "method": "The activity of complex V was determined using the MitoTox Complex V OXPHOS Activity Assay kit from Abcam (ab109907, Cambridge, MA, USA), according to the instructions. The activity of complex V was measured by monitoring the change in absorbance at 340 nm over a period of 2 h at 30 °C. Oligomycin (Selleck, […]) was used as a positive control for the assay."}, "[2]": {"molecular_target": "F1‐ATP synthase complex (Sus scrofa, UniProt K7GLT8+P80021)", "assay": "fluorescence polarization binding assay", "parameters": "species or system pig", "settings": "F1‐ATPase 30 nM, HI‐103 4 nM, competitor 1 μM", "from_the_text": "ATP5A and ATP5B are important components of FOF1–ATP synthase, also known as ATP synthase, which is a protein complex that catalyzes ATP synthesis by utilizing energy from the translocation of protons across biological membranes.^[ [40] ^] FOF1‐ATP synthase consists of two domains: the membrane‐spanning domain, FO, which acts as a proton channel, and the soluble catalytic domain, F1, which synthesizes ATP and is composed of nine subunits(α 3 β 3 γδɛ).^[ [41], [42], [43], [44] ^] […] To verify whether HI‐101 targeted ATP5A and ATP5B, we knocked down the subunits of F1 domains separately by shRNA.\nF1‐ATPase at indicated concentrations was incubated with HI‐103 (4 nM), bodipy‐1 was as a negative molecule, conduct the experiment after incubating in 96‐well microplates of black polystyrene for 10 min. The FP results were analyzed with GraphPad Prism 9.0."}, "[3]": {"system": "HIF‐1α protein synthesis", "assay": "AHA labeling assay of nascent HIF‐1α protein", "type": "cell-based, human", "settings": "HEK293T, hypoxia, 10 or 20 µM", "method": "Lysosome and ubiquitin/proteasome systems are two main pathways for cellular protein degradation.^[ [49], [50] ^] MG‐132 and PS‐341 are potent, selective, and reversible proteasome inhibitors, chloroquine (CQ) and NH4Cl are autophagy inhibitors that inhibit lysosomal degradation by increasing lysosomal pH. MG‐132, PS‐341, CQ, NH4Cl, and DMSO at indicated concentrations were added to HEK293T cells for 6 h followed by treatment with DMSO or 10 µM HI‐101 for another 12 h under hypoxia condition. Cells were then collected, lysed, and immunoblotted to detect HIF‐1α protein level. […] In order to verify whether HI‐101 inhibited the synthesis of HIF‐1α protein, L‐azidohomoalanine (AHA) labeling assay^[ [51] ^] was carried out. The nascent protein was labeled by AHA incorporation, enriched by click reaction, and detected by anti‐biotin antibody.\nHEK293T cells seeded in 10 cm dishes were added with DMSO or HI‐101 at concentrations 10 or 20 µM, then cultured in hypoxia incubator. The next day, cells were washed twice with PBS and incubated in DMEM without methionine for 4 h. At the same time, add […] (AHA) to all groups, and the positive control group treatment with cycloheximide (CHX). AHA concentration and incubation time were 50 µM and 4 h. […]"}, "[4]": {"system": "HIF‐1α target genes (VEGF and PDK1) mRNA expression", "assay": "quantitative RT‐PCR of HIF‐1α target genes", "type": "cell-based, human", "settings": "listed as HI‐101", "method": "(§1) Total RNA was isolated using Trizol reagent (Invitrogen). Complementary DNA was synthesized using a Reverse Transcriptase reagent (Promega). Fluorescence real‐time PCR was performed with the double‐stranded DNA dye SYBR Master Mix (Roche Diagnostics Corporation, Indianapolis, IN, USA) and the Applied Biosystems Step One Plus detection system (ABI 7900). The upstream and downstream gene‐specific primers were as follows. • HIF‐1α sense: 5′‐[…]‐3′, • HIF‐1α antisense: 5′‐[…]‐3′; • HIF‐1β sense: 5′‐[…]‐3′, • HIF‐1β antisense:5′‐[…]‐3′; • VEGF sense: 5′‐[…]‐3′, • VEGF antisense: 5′‐[…]‐3′; • PDK1 sense:5′‐[…]‐3′, • PDK1 antisense:5′‐GGAGGTCTCAACACGAGGT‐3′; • β‐actin sense: 5′‐[…]‐3′, • β‐actin antisense: 5′‐[…]‐3′; • ATP5D sense:5′‐ […]‐3′, • ATP5D antisense: 5′‐[…]‐3′; • ATP5E sense: 5′‐ […]‐3′, • ATP5E antisense:5′‐[…]‐3′; • ATP5F1 sense: 5′‐ […]‐3′, • ATP5F1 antisense:5′‐[…]‐3′."}, "[5]": {"system": "HIF‐1α and HIF‐1β mRNA expression", "assay": "RT‐qPCR of HIF‐1α and HIF‐1β mRNA", "type": "cell-based, human", "from_the_text": "The whole protein synthesis process can be divided into four major steps: transcription, translation, posttranslational modifications and folding to a mature protein, and protein secretion.^[ [52] ^] We then investigated the potential effects of HI‐101 on HIF‐1α transcription and translation. […] On the basis of the existing experimental results, we draw a conclusion that HI‐101 inhibited the synthesis of nascent HIF‐1α protein without affecting its transcription.\nas §1"}},
  "note": "“Also recorded” adds a separate entry of the source.",
  "data": [
    {"smiles": "O=C(Nc1ccc(C23CC4CC(CC(C4)C2)C3)cc1)c1cccc(Cl)c1", "note": "[1‐3a, N‐(4‐((3r,5r,7r)‐Adamantan‐1‐yl)Phenyl)−3‐Chlorobenzamide]", "values": [
      {"measurement": "ATP synthase activity", "setting": "[1]", "result": "no effect on ATP synthase activity"},
      {"measurement": "competitive fluorescence polarization binding", "setting": "[2]", "result": "bound to F1‐ATP synthase complex in a similar way as HI‐103"},
      {"measurement": "HIF‐1α protein synthesis (nascent, AHA labeled)", "setting": "[3]", "result": "significantly inhibited"},
      {"measurement": "HIF‐1α target genes mRNA expression", "setting": "[4]", "result": "significantly inhibited HIF‐1α transcriptional activity and the expressions of HIF‐1α target genes; also recorded: significantly decreased the mRNA expression of HIF‐1α target gene VEGF"},
      {"measurement": "HIF‐1α and HIF‐1β mRNA expression", "setting": "[5]", "result": "did not affect HIF‐1α and HIF‐1β mRNA expression"}
    ]}
  ]
}
